Our source for the IC50 values is ChEMBL document CHEMBL1121969, “Synthesis and antiviral properties of some 2'-deoxy-5-(fluoroalkenyl)uridines” (1982).

The assay concerns Human alphaherpesvirus 1. The assay can be described thus: Antiviral activity against various strains of Herpes Simplex virus type I. The assay is classed as functional. To be noted: read-out: ID50 (the source's name).

Converted amounts (≈) assume the structure as drawn.

Turning to `Nc1ncnc2c1ncn2[C@@H]1O[C@H](CO)[C@@H](O)[C@H]1O` [ADENOSINE], the IC50 was 21 µg/mL (≈ 78.6 µM).
For the compound `O=c1[nH]c(=O)n([C@H]2C[C@H](O)[C@@H](CO)O2)cc1/C=C/Br` [BRIVUDINE], the IC50 is 0.07 µg/mL (≈ 0.21 µM).
The figure for `O=c1[nH]c(=O)n([C@H]2C[C@H](O)[C@@H](CO)O2)cc1/C(F)=C(\F)Cl.O=c1[nH]c(=O)n([C@H]2C[C@H](O)[C@@H](CO)O2)cc1C(F)=C(Cl)Cl` is 24 µg/mL; for `Nc1nc2c(ncn2COCCO)c(=O)[nH]1` [ACYCLOVIR] it is 0.8 µg/mL (≈ 3.55 µM); for `O=c1[nH]c(=O)n([C@H]2C[C@H](O)[C@@H](CO)O2)cc1C(F)=C(Cl)Cl` it is 26 µg/mL (≈ 76.2 µM).
In the case of `O=c1[nH]c(=O)n([C@H]2C[C@H](O)[C@@H](CO)O2)cc1I` [IDOXURIDINE] it was 4.4 µg/mL (≈ 12.4 µM).
